{"source": "PubChem BioAssay (NCI)", "test_in_all_cases": "NCI tumour cell line growth inhibition, 48 h", "key": {"KM12 colon": {"tested_on": "KM12 colon"}, "SK-MEL-5 melanoma": {"tested_on": "SK-MEL-5 melanoma"}, "MDA-N": {"tested_on": "MDA-N"}, "HOP-62 NSCLC": {"tested_on": "HOP-62 NSCLC"}, "P388 leukemia": {"tested_on": "P388 leukemia"}, "A498 renal": {"tested_on": "A498 renal"}, "OVCAR-8 ovarian": {"tested_on": "OVCAR-8 ovarian"}, "SNB-75 CNS": {"tested_on": "SNB-75 CNS"}, "MDA-MB-435": {"tested_on": "MDA-MB-435"}, "MALME-3M melanoma": {"tested_on": "MALME-3M melanoma"}, "CCRF-CEM leukemia": {"tested_on": "CCRF-CEM leukemia"}, "TK-10 renal": {"tested_on": "TK-10 renal"}, "HCT-116 colon": {"tested_on": "HCT-116 colon"}, "UO-31 renal": {"tested_on": "UO-31 renal"}, "BT-549 breast": {"tested_on": "BT-549 breast"}, "HL-60(TB) leukemia": {"tested_on": "HL-60(TB) leukemia"}, "IGROV1 ovarian": {"tested_on": "IGROV1 ovarian"}, "DMS 273 small cell lung": {"tested_on": "DMS 273 small cell lung"}, "M19-MEL melanoma": {"tested_on": "M19-MEL melanoma"}, "DU-145 prostate": {"tested_on": "DU-145 prostate"}, "NCI-H226 lung": {"tested_on": "NCI-H226 lung"}, "SW-620 colon": {"tested_on": "SW-620 colon"}, "T-47D breast": {"tested_on": "T-47D breast"}, "COLO 205 colon": {"tested_on": "COLO 205 colon"}, "LOX IMVI melanoma": {"tested_on": "LOX IMVI melanoma"}, "RPMI-8226 leukemia": {"tested_on": "RPMI-8226 leukemia"}, "NCI/ADR-RES ovarian": {"tested_on": "NCI/ADR-RES ovarian"}, "EKVX NSCLC": {"tested_on": "EKVX NSCLC"}, "OVCAR-5 ovarian": {"tested_on": "OVCAR-5 ovarian"}, "DMS 114 small cell lung": {"tested_on": "DMS 114 small cell lung"}, "HS 578T breast": {"tested_on": "HS 578T breast"}, "SK-MEL-28 melanoma": {"tested_on": "SK-MEL-28 melanoma"}, "XF 498 CNS": {"tested_on": "XF 498 CNS"}, "SF-268 CNS": {"tested_on": "SF-268 CNS"}, "CAKI-1 renal": {"tested_on": "CAKI-1 renal"}, "786-0 renal": {"tested_on": "786-0 renal"}, "A549 NSCLC": {"tested_on": "A549 NSCLC"}, "SF-295 CNS": {"tested_on": "SF-295 CNS"}, "HCC-2998 colon": {"tested_on": "HCC-2998 colon"}, "SN12K1 renal": {"tested_on": "SN12K1 renal"}, "HOP-92 NSCLC": {"tested_on": "HOP-92 NSCLC"}, "SNB-78 CNS": {"tested_on": "SNB-78 CNS"}, "SK-OV-3 ovarian": {"tested_on": "SK-OV-3 ovarian"}, "SN12C renal": {"tested_on": "SN12C renal"}, "NCI-H460 lung": {"tested_on": "NCI-H460 lung"}, "HCT-15 colon": {"tested_on": "HCT-15 colon"}, "MCF7 breast": {"tested_on": "MCF7 breast"}, "SNB-19 CNS": {"tested_on": "SNB-19 CNS"}, "KM20L2 colon": {"tested_on": "KM20L2 colon"}, "HT29 colon": {"tested_on": "HT29 colon"}, "SK-MEL-2 melanoma": {"tested_on": "SK-MEL-2 melanoma"}, "MDA-MB-231 breast": {"tested_on": "MDA-MB-231 breast"}, "NCI-H522 lung": {"tested_on": "NCI-H522 lung"}, "SR leukemia": {"tested_on": "SR leukemia"}}, "note": "“And” between values parts separate entries of the source, which are not always exact repeats. Equal entries are not always repeated.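 Tested at 5 concentrations; 48 h exposure; 96-well plates; endpoints linearly interpolated, else capped at highest concentration. At the GI50, growth is halved. TGI denotes the concentration required for complete inhibition of growth.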", "data": [{"smiles": "COc1ccc2c(c1)c1c(C)c3cnccc3c(C)c1n2CCCN", "values": [{"measurement": "GI50", "setting": "KM12 colon", "value": "79.8 nM and 29.8 nM"}, {"measurement": "TGI", "setting": "KM12 colon", "value": "483 nM and 213 nM"}, {"measurement": "GI50", "setting": "SK-MEL-5 melanoma", "value": 282, "unit": "nM"}, {"measurement": "TGI", "setting": "SK-MEL-5 melanoma", "value": "746 nM and 1060 nM"}, {"measurement": "TGI", "setting": "MDA-N", "value": 306, "unit": "nM"}, {"measurement": "GI50", "setting": "HOP-62 NSCLC", "value": 18.7, "unit": "nM"}, {"measurement": "TGI", "setting": "HOP-62 NSCLC", "value": "984 nM and 279 nM"}, {"measurement": "TGI", "setting": "P388 leukemia", "value": 98.7, "unit": "nM"}, {"measurement": "GI50", "setting": "A498 renal", "value": 317, "unit": "nM"}, {"measurement": "TGI", "setting": "A498 renal", "value": "856 nM and 885 nM"}, {"measurement": "GI50", "setting": "OVCAR-8 ovarian", "value": 105, "unit": "nM"}, {"measurement": "TGI", "setting": "OVCAR-8 ovarian", "value": "741 nM and 892 nM"}, {"measurement": "GI50", "setting": "SNB-75 CNS", "value": 64, "unit": "nM"}, {"measurement": "TGI", "setting": "SNB-75 CNS", "value": "791 nM and 206 nM"}, {"measurement": "TGI", "setting": "MDA-MB-435", "value": 190, "unit": "nM"}, {"measurement": "GI50", "setting": "MALME-3M melanoma", "value": 225, "unit": "nM"}, {"measurement": "TGI", "setting": "MALME-3M melanoma", "value": "1420 nM and 609 nM"}, {"measurement": "GI50", "setting": "CCRF-CEM leukemia", "value": "47.2 nM and < 10 nM"}, {"measurement": "TGI", "setting": "TK-10 renal", "value": 2750, "unit": "nM"}, {"measurement": "GI50", "setting": "HCT-116 colon", "value": 65.9, "unit": "nM"}, {"measurement": "TGI", "setting": "HCT-116 colon", "value": "303 nM and 1060 nM"}, {"measurement": "GI50", "setting": "UO-31 renal", "value": 12.5, "unit": "nM"}, {"measurement": "TGI", "setting": "UO-31 renal", "value": "1360 nM and 168 nM"}, {"measurement": "TGI", "setting": "BT-549 breast", "value": 2600, "unit": "nM"}, {"measurement": "GI50", "setting": "HL-60(TB) leukemia", "value": "450 nM and 238 nM"}, {"measurement": "TGI", "setting": "HL-60(TB) leukemia", "value": "977 nM and 1020 nM"}, {"measurement": "GI50", "setting": "IGROV1 ovarian", "value": 136, "unit": "nM"}, {"measurement": "TGI", "setting": "IGROV1 ovarian", "value": "1320 nM and 1180 nM"}, {"measurement": "TGI", "setting": "DMS 273 small cell lung", "value": 382, "unit": "nM"}, {"measurement": "TGI", "setting": "M19-MEL melanoma", "value": 633, "unit": "nM"}, {"measurement": "TGI", "setting": "DU-145 prostate", "value": 389, "unit": "nM"}, {"measurement": "GI50", "setting": "NCI-H226 lung", "value": "558 nM and 416 nM"}, {"measurement": "TGI", "setting": "NCI-H226 lung", "value": "1300 nM and 1600 nM"}, {"measurement": "GI50", "setting": "SW-620 colon", "value": "< 10", "unit": "nM"}, {"measurement": "TGI", "setting": "SW-620 colon", "value": "584 nM and 602 nM"}, {"measurement": "TGI", "setting": "T-47D breast", "value": 760, "unit": "nM"}, {"measurement": "GI50", "setting": "COLO 205 colon", "value": 82.2, "unit": "nM"}, {"measurement": "TGI", "setting": "COLO 205 colon", "value": "751 nM and 259 nM"}, {"measurement": "TGI", "setting": "LOX IMVI melanoma", "value": 241, "unit": "nM"}, {"measurement": "GI50", "setting": "RPMI-8226 leukemia", "value": "93.1 nM and 89.4 nM"}, {"measurement": "TGI", "setting": "RPMI-8226 leukemia", "value": "443 nM and 555 nM"}, {"measurement": "GI50", "setting": "NCI/ADR-RES ovarian", "value": 217, "unit": "nM"}, {"measurement": "TGI", "setting": "NCI/ADR-RES ovarian", "value": "696 nM and 759 nM"}, {"measurement": "GI50", "setting": "EKVX NSCLC", "value": 106, "unit": "nM"}, {"measurement": "TGI", "setting": "EKVX NSCLC", "value": "771 nM and 405 nM"}, {"measurement": "GI50", "setting": "OVCAR-5 ovarian", "value": 94.6, "unit": "nM"}, {"measurement": "TGI", "setting": "OVCAR-5 ovarian", "value": "1120 nM and 542 nM"}, {"measurement": "TGI", "setting": "DMS 114 small cell lung", "value": 669, "unit": "nM"}, {"measurement": "TGI", "setting": "HS 578T breast", "value": 953, "unit": "nM"}, {"measurement": "TGI", "setting": "SK-MEL-28 melanoma", "value": "892 nM and 1100 nM"}, {"measurement": "TGI", "setting": "XF 498 CNS", "value": 942, "unit": "nM"}, {"measurement": "GI50", "setting": "SF-268 CNS", "value": "63.3 nM and 57.7 nM"}, {"measurement": "TGI", "setting": "SF-268 CNS", "value": "204 nM and 425 nM"}, {"measurement": "GI50", "setting": "CAKI-1 renal", "value": "130 nM and 164 nM"}, {"measurement": "TGI", "setting": "CAKI-1 renal", "value": "491 nM and 806 nM"}, {"measurement": "TGI", "setting": "786-0 renal", "value": 634, "unit": "nM"}, {"measurement": "GI50", "setting": "A549 NSCLC", "value": 18.6, "unit": "nM"}, {"measurement": "GI50", "setting": "SF-295 CNS", "value": 147, "unit": "nM"}, {"measurement": "TGI", "setting": "SF-295 CNS", "value": "621 nM and 1000 nM"}, {"measurement": "GI50", "setting": "HCC-2998 colon", "value": 75.3, "unit": "nM"}, {"measurement": "TGI", "setting": "HCC-2998 colon", "value": "1200 nM and 225 nM"}, {"measurement": "TGI", "setting": "SN12K1 renal", "value": 239, "unit": "nM"}, {"measurement": "GI50", "setting": "HOP-92 NSCLC", "value": 352, "unit": "nM"}, {"measurement": "TGI", "setting": "HOP-92 NSCLC", "value": "739 nM and 1130 nM"}, {"measurement": "TGI", "setting": "SNB-78 CNS", "value": 653, "unit": "nM"}, {"measurement": "GI50", "setting": "SK-OV-3 ovarian", "value": 202, "unit": "nM"}, {"measurement": "TGI", "setting": "SK-OV-3 ovarian", "value": "1140 nM and 713 nM"}, {"measurement": "GI50", "setting": "SN12C renal", "value": 170, "unit": "nM"}, {"measurement": "TGI", "setting": "SN12C renal", "value": "916 nM and 1010 nM"}, {"measurement": "GI50", "setting": "NCI-H460 lung", "value": 19.9, "unit": "nM"}, {"measurement": "TGI", "setting": "NCI-H460 lung", "value": "282 nM and 135 nM"}, {"measurement": "GI50", "setting": "HCT-15 colon", "value": 62.4, "unit": "nM"}, {"measurement": "TGI", "setting": "HCT-15 colon", "value": "473 nM and 955 nM"}, {"measurement": "GI50", "setting": "MCF7 breast", "value": 16.2, "unit": "nM"}, {"measurement": "TGI", "setting": "MCF7 breast", "value": "663 nM and 108 nM"}, {"measurement": "GI50", "setting": "SNB-19 CNS", "value": 33.7, "unit": "nM"}, {"measurement": "TGI", "setting": "SNB-19 CNS", "value": "1440 nM and 512 nM"}, {"measurement": "TGI", "setting": "KM20L2 colon", "value": 685, "unit": "nM"}, {"measurement": "GI50", "setting": "HT29 colon", "value": "< 11.4", "unit": "nM"}, {"measurement": "TGI", "setting": "HT29 colon", "value": "734 nM and 182 nM"}, {"measurement": "GI50", "setting": "SK-MEL-2 melanoma", "value": 193, "unit": "nM"}, {"measurement": "TGI", "setting": "SK-MEL-2 melanoma", "value": "815 nM and 393 nM"}, {"measurement": "TGI", "setting": "MDA-MB-231 breast", "value": 381, "unit": "nM"}, {"measurement": "GI50", "setting": "NCI-H522 lung", "value": 85.3, "unit": "nM"}, {"measurement": "TGI", "setting": "NCI-H522 lung", "value": "763 nM and 242 nM"}, {"measurement": "TGI", "setting": "SR leukemia", "value": 118, "unit": "nM"}]}]}
